Test results from US6383528B1 (Yuyu International Co., Ltd., priority 1997, dated 2002).

Key:
[1] = system: femur marrow cells; assay: Histological examination of the marrow cells after 16 weeks; format: in vivo; settings: rats, femur marrow histology ×400
Source text: Histological Examination of the Marrow Cells after the Administration of the Pharmaceutical Composition for 16 Weeks […] Thereafter, the marrow cells was histologically examined. […] The femur so extracted was decalcified with the decalcification solution and embedded with paraffin after the ordinary course of the histological process. The femur tissue so embedded with paraffin was sliced at a thickness of 4 μm, followed by hematoxylin and eosins. Thereafter, the slide was examined with the light microscope at 400×.

[2] = system: femur marrow cells; assay: Number of bone marrow cells after 16 weeks of administration and 2 weeks of withdrawal; format: in vivo; settings: rats, 16 weeks then 2 weeks of withdrawal; combination 5:2
Protocol: The Changes in the Number of the Bone Marrow Cells after 16 Weeks of the Administration of the Pharmaceutical Composition, Followed by 2 Weeks of Withdrawal
Thereafter, the number of bone marrow cells at femur was measured.

[3] = system: platelet aggregation induced by 1×10^−5 M ADP; assay: Ex vivo platelet aggregation suppression effect; settings: female rats, ADP 1×10^−5 M
Source text: Ex Vivo Platelet Aggregation Suppression Effect
One hour after the final administration on the specimen, the rats were anesthetized. For preventing blood coagulation, the blood sample was collected using a syringe with the anti-coagulant, 3.8% Sodium Citrate solution. Thereafter, the effects oil the platelet aggregation induced by 1×10^−5 M ADP were studied.

[4] = patients, first 3 months of treatment; cited from earlier work
[5] = system: femur marrow cells; assay: Number of bone marrow cells after 16 weeks of administration; format: in vivo; settings: rats, ticlopidine vs control, combinations vs ticlopidine alone
Protocol: A Change in the Number of Bone Marrow Cells after the Administration of the Pharmaceutical Composition for the Duration of 16 Weeks. […] Thereafter, the number of bone marrow cells was measured. In detail, for the purposes of measuring the numbers of the precursor cells of leukocytes, the femur part was incised with the elimination of the surrounding muscle tissues. Then, both sides of epiphysis were incised, from which approximately 2 cm of femur was obtained. […] After removing the supernatant, 1 ml of saline solution was added to the precipitated cell layer. […] Then, removing the supernatant once again, 0.5 ml of saline solution was added to the precipitated cell layer and mixed. The drop therefrom was added to the Cytometer, and the number of cells in the RRRRR 5 part (4 corners and the center) was counted. Using the following formula, the number of marrow cells were calculated: Counted Number×50×10×10^3=Number of white blood cell precursor/femur.

[6] = system: femur marrow cells; assay: Histological examination of the marrow cells after 16 weeks and 2 weeks of withdrawal; format: in vivo; settings: rats, 16 weeks then 2 weeks of withdrawal, femur marrow histology
Source text: Histological Examination of the Marrow Cells after the Administration of the Pharmaceutical Composition for 16 Weeks, Followed by 2 Weeks of Withdrawal
Thereafter, the marrow cells were histolosically examined.

[7] = system: thrombus formation at the cotton thread in the A-V Shunt; assay: Thrombus formation by arterio-venous shunt (A-V Shunt); format: in vivo; settings: female rats; for Thrombus Dry Condition Suppression Rate (%) / Thrombus Wet Condition Suppression Rate (%): vs control rats
Protocol: Thrombus Formation by Arterio-Venous Shunt (A-V Shunt hereinafter) and the Effects on the Platelet Aggregation […] Thereafter, Table 7 was tabulated with the measured weights of the thrombus formation at the cotton thread in the A-V Shunt. At this point, the weights of thrombus were measured in terms of the wet weight immediately after the experiment, and dry weight after complete drying.

[8] = system: mouse acute thrombus model; assay: Recovery rate in the mouse acute thrombus model (collagen + epinephrine); format: in vivo; settings: for Recovered Mouse, Number of Mouse: recovery within 15 minutes
Protocol: An Increase in Recovery Rate in the Mouse Acute Thrombus Model
One hour after the final administration of the regimen, the mixed solution containing collagen and epinephrine (collagen 1100 μg+epinephrine 110 μg/10 ml of saline solution/kg) was injected into the vein in the tail. The status of paralysis or death from pulmonary infarction, and the recovery therefrom were duly recorded.
As in the experiment above if the mixed solution comprising collagen and epinephrine was infected into the vein a large of amount of thrombus was generated shortly thereafter with the result of an occlusion in the pulmonary artery. Within one minute after the injection, almost every part of the body was in paralysis with the enlargement of a pupil. Dyspnea occurred followed by a seizure. Within 5 minutes, approximately 70˜80% of the mouse were deceased. As to the remainder, almost every mouse were dead within 15 minutes or in a continued paralysis.

[9] = system: platelet aggregation induced by ADP 3×10^−5M in PRP; assay: Ex vivo platelet aggregation in rats with A-V Shunt; settings: for Aggregation Rate (%) 2 Minutes / Aggregation Rate (%) 3 Minutes / Aggregation Rate (%) Maximum: control maximum set at 100
Protocol: The Effect on Platelet Aggregation in the A-V Shunt of Rats
After the administration of the same regimens used in Experiment 3 for the duration of 9 days, the weights of thrombus formations at the A-V Shunt were measured as the sample of the blood therefrom was collected for the purposes of studying the effect on the ex vivo platelet aggregation after the AV-Shunt. In particular, to the PRP (supernatant after the centrifuge of the blood sample for 10 minutes at 200×g) prepared from the respective blood sample, ADP 3×10^−5M, which is the platelets aggregation inducer, were added for the purposes of inducing aggregation.
In order to study the ex vivo platelet aggregation effect of the rats' blood without A-V Shunt, the concentration of ADP lower than 1×10^−5M was used. With the maximum platelet aggregation rate of rats in the control group with A-V Shunt set at 100, various aggregation rates were compared.

[10] = system: leukocytes in rat; assay: Leukocyte number and differential ratios after 16 weeks of administration; format: in vivo; settings: rats
Protocol: Bellefonte, Pa.). […] The changes due to the dosage amount and blending ratio were set as follows. […] On the other hand, one tablet of the Ginkgo biloba extract is 40 mg, 80 mg, 120 mg with a daily dosage of 120 mg to 240 mg. […] [table] […] After anesthesia, blood was collected through the abdominal aorta, and the number of white blood cells were counted using the Coulter Counter. Using the cytochemical dyeing method, the ratios of neutrophil, eosinophil, basophil, macrophage and lymphocytes were measured.

[11] = system: female rats; assay: Prolongation of the bleeding time (tail incision); format: in vivo; settings: for Bleeding Time: female rats
Protocol: Prolongation of the Bleeding Time
One hour after the final administration of the regimen, 250 mg/kg of ketamine was injected into muscle tissue for anesthesia. 2 mm from the tail end was incised with the razor blade, after which the blood therefrom was blotted with the filter paper at the interval of 5 second to the point of the hemorrhage stoppage.

[12] = system: leukocytes in rat; assay: Leukocyte number and differential ratios after 16 weeks of administration and 2 weeks of withdrawal; format: in vivo; settings: rats
Protocol: Rats were administered with the same regimens as in Experiment 6 for the duration of 16 weeks, and those with two weeks of withdrawal were separately maintained.

[13] = 50 mg/kg/day for 9 days, 50 mg/kg/day
[14] = 50 mg/kg/day for 9 days, listed as Ticlopidine (T), 50 mg/kg/day
[15] = 100 mg/kg/day for 9 days, 100 mg/kg/day
[16] = 100 mg/kg/day for 9 days, listed as Ticlopidine (T), 100 mg/kg/day
[17] = 50 mg/kg/day for 9 days, listed as Ticlopidine (T)
[18] = 100 mg/kg/day for 9 days, listed as Ticlopidine (T)
[19] = 16 weeks P.O., ticlopidine 300 mg/kg/day alone or + Ginkgo extract 60/120/240 mg/kg/day, mean ± S.E.
[20] = 16 weeks P.O. then 2 weeks of withdrawal, 300 or 300 + 120 mg/kg/day, mean ± S.E.

Clc1ccccc1CN1CCc2sccc2C1 [Ticlopidine, 5-[(2-chlorophenyl)methyl]-4,5,6,7-tetrahydrothieno[3,2-C]pyridine]
Band-granulocyte [1]: no change | Cellularity (density of the marrow cells) [1]: malignant vacuolation | Megakaryocyte [1]: decreased | Myelocyte [1]: significantly decreased | number of marrow cells at femur (FIG. 2), words [2]: recovered to the normal level | Suppression Rate (%) (Avg + SD) ([3]; 100 mg/kg/day for 3 days, 100 mg/kg/day): 67% | Suppression Rate (%) (Avg + SD) ([3]; 100 mg/kg/day for 3 days, listed as Ticlopidine (T), 100 mg/kg/day): 67.06 ± 16.25 % | Suppression Rate (%) (Avg + SD) ([3]; 200 mg/kg/day for 3 days, 200 mg/kg/day): 98% | Suppression Rate (%) (Avg + SD) ([3]; 200 mg/kg/day for 3 days, listed as Ticlopidine (T), 200 mg/kg/day): 97.97 ± 4.53 % | incidence rate of toxicity (neutropenia, agranulocytosis) [4]: 0.8% | number of white blood cell precursor at marrow (femur marrow cells, FIG. 1), words [5]: significant reduction | Megakaryocyte [6]: increased almost to the point of the control group | Thrombus Dry Condition Weight ([7]; 50 mg/kg/day for 9 days): 9.53 mg | Thrombus Wet Condition Weight ([7]; 50 mg/kg/day for 9 days): 35.03 mg | Thrombus Dry Condition Suppression Rate (%) [7, 13]: 25% | Thrombus Wet Condition Suppression Rate (%) [7, 13]: 26% | Thrombus Dry Condition Suppression Rate (%) [7, 14]: 25 ± 21% | Thrombus Wet Condition Suppression Rate (%) [7, 14]: 26 ± 19% | Thrombus Dry Condition Weight ([7]; 100 mg/kg/day for 9 days): 8.78 mg | Thrombus Wet Condition Weight ([7]; 100 mg/kg/day for 9 days): 30.45 mg | Thrombus Dry Condition Suppression Rate (%) [7, 15]: 31% | Thrombus Wet Condition Suppression Rate (%) [7, 15]: 36% | Thrombus Dry Condition Suppression Rate (%) [7, 16]: 31 ± 12% | Thrombus Wet Condition Suppression Rate (%) [7, 16]: 36 ±10% | Recovered Mouse, % ([8]; 50 mg/kg/day for 3 days): 38% | Recovered Mouse, Number of Mouse ([8]; 50 mg/kg/day for 3 days): 6 | Recovered Mouse, % ([8]; 100 mg/kg/day for 3 days): 47% | Recovered Mouse, Number of Mouse ([8]; 100 mg/kg/day for 3 days): 7 | Time (Minute) Maximum (time to maximum aggregation) ([9]; 50 mg/kg/day for 9 days): 1.8 min | Time (Minute) Total (complete de-aggregation) ([9]; 50 mg/kg/day for 9 days): 4.33 min | Aggregation Rate (%) 2 Minutes ([9]; 50 mg/kg/day for 9 days): 74% | Aggregation Rate (%) 3 Minutes ([9]; 50 mg/kg/day for 9 days): 45% | Aggregation Rate (%) Maximum ([9]; 50 mg/kg/day for 9 days): 78% | Aggregation Rate (%) 2 Minutes [9, 17]: 74.4% | Aggregation Rate (%) 3 Minutes [9, 17]: 45.8% | Aggregation Rate (%) Maximum [9, 17]: 78.2% | Time (Minute) Maximum (time to maximum aggregation) ([9]; 100 mg/kg/day for 9 days): 1.5 min | Time (Minute) Total (complete de-aggregation) ([9]; 100 mg/kg/day for 9 days): 3.4 min | Aggregation Rate (%) 2 Minutes ([9]; 100 mg/kg/day for 9 days): 62% | Aggregation Rate (%) 3 Minutes ([9]; 100 mg/kg/day for 9 days): 21% | Aggregation Rate (%) Maximum ([9]; 100 mg/kg/day for 9 days): 72% | Aggregation Rate (%) 2 Minutes [9, 18]: 62.9% | Aggregation Rate (%) 3 Minutes [9, 18]: 21.4% | Aggregation Rate (%) Maximum [9, 18]: 72.6% | eosinophil, basophil, macrophage or lymphocyte compared with the control group ([10]; 16 weeks): not significant differences | white blood cells in the blood compared with the control group ([10]; 16 weeks): slight tendency of a decrease | Total Leukocyte (×10^3/μl) ([10]; 16 weeks P.O. in drinking water, ticlopidine 300 mg/kg/day alone or + Ginkgo extract 60 (5:1), 120 (5:2), 240 (5:4) mg/kg/day, mean ± S.E.): 9.3 ± 1.3 ×10^3/μl | Basophil (%) [10, 19]: 1.7 ± 0.2% | Eosinophil (%) [10, 19]: 2.0 ± 0.4% | Lymphocyte (%) [10, 19]: 80.4 ± 1.6% | Macrophage (%) [10, 19]: 5.5 ± 0.8% | Neutrophil (%) [10, 19]: 10.5 ± 1.1 % | Neutrophil (%) ([10]; 16 weeks P.O., ticlopidine 300 mg/kg/day alone or + Ginkgo extract 60/120/240 mg/kg/day, mean ± S.E., listed as ticlopidine): 10.5±1.1% | bleeding time increase from that in the control group ([11]; 50 mg/kg): 1.5 times | bleeding time increase from that in the control group ([11]; 100 mg/kg): 2 times | Bleeding Time ([11]; 50 mg/kg/day for 5 days): 1546 ± 332 s | Bleeding Time ([11]; 100 mg/kg/day for 5 days): 2023 ± 872 s | Basophil (%) [12, 20]: 0.3 ± 0.1% | Eosinophil (%) [12, 20]: 2.7 ± 0.2% | Lymphocyt (%) [12, 20]: 77.8 ± 0.5% | Macrophage (%) [12, 20]: 3.5 ± 1.0% | Neutrophil (%) [12, 20]: 15.9 ± 1.7 % | Total Leukocyte (×10^3/μl) ([12]; 16 weeks P.O. then 2 weeks of withdrawal, ticlopidine 300 mg/kg/day alone or + Ginkgo extract 120 mg/kg/day (5:2), mean ± S.E.): 10.3 ± 1.2 ×10^3/μl | number of neutrophil / leukocytes after withdrawal compared with the control group ([12]; 16 weeks then 2 weeks of withdrawal): normal recovery
